Data reported in patent US4684649A, “Quinoxaline derivatives useful for treatment and prophylaxis of swine dysentery and as animal growth promotants” (priority 1985, dated 1987).
≈ marks a conversion by molar mass, not a printed value.

How the values were obtained:
[1] = growth promotion and feed efficiency in pigs; format: in vivo; settings: 28 days, 200 grams/ton in diet
Source text: The efficacy of compound of Example 1 in promoting growth and improving the feed efficiency is illustrated below. 20 healthy pigs of same age and of average same weight were divided into two groups. One group of 10 pigs served as control and was fed a basal non-supplemented diet, the other group of 10 pigs received the same basal diet, but supplemented with 200 grams/ton of compound of Example 1.

[2] = tested on: Salmonella Typhimurium TA 1535; assay: Ames test, in the presence of microsomial extract, strain TA 1535; format: cell-based
Source text: (§1) Mutation Test determined according to the "Ames test"
(§2) (B.N. Ames et al. Mutation Research 31, page 347, 1975).
(§3) The compound 2-[bis-(1'-hydroxy-3'-t-butyl-4'-methoxy-phenyl-2')-methyl-quinoxaline-1,4-dioxide prepared according to Example 1 was submitted to the Ames test showing the results summarized in the following two tables: […]

Treponema hyodysenterae = assay: medicated feed in pigs exposed to Treponema hyodysenterae infections (swine dysentery); format: in vivo
Source text: Compound of Example 1 was mixed with the swine balanced feed described on page 8 at the ratio of 200 grams/ton. A group of 30 pigs was fed with this medicated diet. An equivalent group of pigs was used as control. The two groups were stabled in pigsties where infections of Treponema hyodysenterae have been observed. No one of the animals under treatment was getting ill, while the 50% of the untreated animals in the control group was clearly showing typical symptoms of swine dysentery.

[3] = tested on: Salmonella Typhimurium TA 1538; assay: Ames test, in the presence of microsomial extract, strain TA 1538; format: cell-based
Source text: as §1, §2, §3

[4] = tested on: Salmonella Typhimurium TA 1535; assay: Ames test, in the absence of microsomial extract, strain TA 1535; format: cell-based
Source text: as §1, §2, §3

[5] = tested on: Salmonella Typhimurium TA 98; assay: Ames test, in the absence of microsomial extract, strain TA 98; format: cell-based
Source text: as §1, §2, §3

Treponema hyodysenteriae = assay: in vitro antibacterial activity (MIC) against Treponema hyodysenteriae; format: cell-based; settings: Brachyspira hyodysenteriae, growth medium with about 5% bovine blood and about 3% tryptose agar
Protocol: MIC's against Treponema hyodysenteriae were determined by spreading appropriate dilutions of the microorganism on a growth medium containing about 5% bovine blood and about 3% tryptose agar.
Among the compounds of structure I subjected to in vitro screening were the following in which R and R1 have the above meaning.

[6] = tested on: Salmonella Typhimurium TA 98; assay: Ames test, in the presence of microsomial extract, strain TA 98; format: cell-based
Source text: as §1, §2, §3

[7] = tested on: Salmonella Typhimurium TA 100; assay: Ames test, in the absence of microsomial extract, strain TA 100; format: cell-based
Source text: as §1, §2, §3

[8] = tested on: Salmonella Typhimurium TA 100; assay: Ames test, in the presence of microsomial extract, strain TA 100; format: cell-based
Source text: as §1, §2, §3

[9] = tested on: Salmonella Typhimurium TA 1538; assay: Ames test, in the absence of microsomial extract, strain TA 1538; format: cell-based
Source text: as §1, §2, §3

Salmonella Typhimurium = settings: Ames test; prior art compound; cited from earlier work

With `COc1ccc(O)c(C(c2c(O)ccc(OC)c2C(C)(C)C)c2c[n+]([O-])c3ccccc3[n+]2[O-])c1C(C)(C)C` [Example 1, 2-[bis(1'-hydroxy-3'-t-butyl-4'-methoxy-phenyl-2')-methyl]-quinoxaline-1,4-dioxide] the “increase in feed efficiency over the controls” value [1] was 5,5%, the “body weight increase over control (heavier on average)” value ([1]; versus control ration) was 4,6% and the “Number of mutating colonies/plate” value ([2]; TA 1535, 10 mcg) was 23 mutating colonies/plate. For the same compound, the “Number of mutating colonies/plate” value ([2]; TA 1535, 30 mcg) was 26 mutating colonies/plate, the “Number of mutating colonies/plate” value ([2]; TA 1535, 100 mcg) was 22 mutating colonies/plate and the “Number of mutating colonies/plate” value ([2]; TA 1535, 300 mcg) was 16 mutating colonies/plate. For the same compound, the “Number of mutating colonies/plate” value ([2]; TA 1535, 600 mcg) was 22 mutating colonies/plate, the “Number of mutating colonies/plate” value ([2]; TA 1535, 1000 mcg) was 20 mutating colonies/plate and the “animals under treatment getting ill” value (Treponema hyodysenterae; 200 grams/ton of feed, 30 pigs, control group 50% ill) was “No one”. The “recovery of the infected animals” value (Treponema hyodysenterae; after 2 weeks of treatment with medicated feed, 200 grams/ton) was “recovered completely”, the “Number of mutating colonies/plate” value ([3]; TA 1538, 10 mcg) was 16 mutating colonies/plate and the “Number of mutating colonies/plate” value ([3]; TA 1538, 30 mcg) was 14 mutating colonies/plate. The “Number of mutating colonies/plate” value ([3]; TA 1538, 100 mcg) was 15 mutating colonies/plate, the “Number of mutating colonies/plate” value ([3]; TA 1538, 300 mcg) was 8 mutating colonies/plate and the “Number of mutating colonies/plate” value ([3]; TA 1538, 600 mcg) was 18 mutating colonies/plate. For the same compound, the “Number of mutating colonies/plate” value ([3]; TA 1538, 1000 mcg) was 14 mutating colonies/plate, the “Number of mutating colonies/plate” value ([4]; TA 1535, 10 mcg) was 15 mutating colonies/plate and the “Number of mutating colonies/plate” value ([4]; TA 1535, 30 mcg) was 12 mutating colonies/plate. The “Number of mutating colonies/plate” value ([4]; TA 1535, 100 mcg) was 9 mutating colonies/plate, the “Number of mutating colonies/plate” value ([4]; TA 1535, 300 mcg) was 13 mutating colonies/plate and the “Number of mutating colonies/plate” value ([4]; TA 1535, 600 mcg) was 25 mutating colonies/plate. The “Number of mutating colonies/plate” value ([4]; TA 1535, 1000 mcg) was 16 mutating colonies/plate, the “Number of mutating colonies/plate” value ([5]; TA 98, 10 mcg) was 25 mutating colonies/plate and the “Number of mutating colonies/plate” value ([5]; TA 98, 30 mcg) was 24 mutating colonies/plate. The “Number of mutating colonies/plate” value ([5]; TA 98, 100 mcg) was 27 mutating colonies/plate, the “Number of mutating colonies/plate” value ([5]; TA 98, 300 mcg) was 24 mutating colonies/plate and the “Number of mutating colonies/plate” value ([5]; TA 98, 600 mcg) was 27 mutating colonies/plate. The “Number of mutating colonies/plate” value ([5]; TA 98, 1000 mcg) was 27 mutating colonies/plate, the solubility (solubility; in acetone) was “slightly soluble” and the solubility (solubility; in benzene) was “slightly soluble”. For the same compound, the solubility (solubility; in dimethylformamide) was “soluble”, the solubility (solubility; in dioxane) was “soluble” and the solubility (solubility; in methanol) was “slightly soluble”. For the same compound, the solubility (solubility; in tetrahydrofuran) was “soluble”, the solubility (solubility; in water) was “very scarcely soluble” and the MIC (Treponema hyodysenteriae) was 0.1 µg/mL (≈ 0.188 µM). The “Number of mutating colonies/plate” value ([6]; TA 98, 10 mcg) was 30 mutating colonies/plate, the “Number of mutating colonies/plate” value ([6]; TA 98, 30 mcg) was 27 mutating colonies/plate and the “Number of mutating colonies/plate” value ([6]; TA 98, 100 mcg) was 24 mutating colonies/plate. For the same compound, the “Number of mutating colonies/plate” value ([6]; TA 98, 300 mcg) was 20 mutating colonies/plate, the “Number of mutating colonies/plate” value ([6]; TA 98, 600 mcg) was 24 mutating colonies/plate and the “Number of mutating colonies/plate” value ([6]; TA 98, 1000 mcg) was 28 mutating colonies/plate. For the same compound, the “Number of mutating colonies/plate” value ([7]; TA 100, 10 mcg) was 168 mutating colonies/plate, the “Number of mutating colonies/plate” value ([7]; TA 100, 30 mcg) was 165 mutating colonies/plate and the “Number of mutating colonies/plate” value ([7]; TA 100, 100 mcg) was 151 mutating colonies/plate. The “Number of mutating colonies/plate” value ([7]; TA 100, 300 mcg) was 162 mutating colonies/plate, the “Number of mutating colonies/plate” value ([7]; TA 100, 600 mcg) was 177 mutating colonies/plate and the “Number of mutating colonies/plate” value ([7]; TA 100, 1000 mcg) was 142 mutating colonies/plate. For the same compound, the “Number of mutating colonies/plate” value ([8]; TA 100, 10 mcg) was 158 mutating colonies/plate, the “Number of mutating colonies/plate” value ([8]; TA 100, 30 mcg) was 143 mutating colonies/plate and the “Number of mutating colonies/plate” value ([8]; TA 100, 100 mcg) was 135 mutating colonies/plate. The “Number of mutating colonies/plate” value ([8]; TA 100, 300 mcg) was 174 mutating colonies/plate, the “Number of mutating colonies/plate” value ([8]; TA 100, 600 mcg) was 175 mutating colonies/plate and the “Number of mutating colonies/plate” value ([8]; TA 100, 1000 mcg) was 125 mutating colonies/plate. For the same compound, the “Number of mutating colonies/plate” value ([9]; TA 1538, 10 mcg) was 11 mutating colonies/plate, the “Number of mutating colonies/plate” value ([9]; TA 1538, 30 mcg) was 16 mutating colonies/plate and the “Number of mutating colonies/plate” value ([9]; TA 1538, 100 mcg) was 15 mutating colonies/plate. For the same compound, the “Number of mutating colonies/plate” value ([9]; TA 1538, 300 mcg) was 10 mutating colonies/plate, the “Number of mutating colonies/plate” value ([9]; TA 1538, 600 mcg) was 17 mutating colonies/plate and the “Number of mutating colonies/plate” value ([9]; TA 1538, 1000 mcg) was 17 mutating colonies/plate.
For `COc1ccc(O)c(C(c2c(O)ccc(OC)c2C(C)C)c2c[n+]([O-])c3ccccc3[n+]2[O-])c1C(C)C` [Example 2, 2-[bis(1'-hydroxy-3'-i-propyl-4'-methoxy-phenyl-2')-methyl]-quinoxaline-1,4-dioxide], the MIC (Treponema hyodysenteriae) was 0.9 µg/mL (≈ 1.78 µM).
For `COC(=O)NN=Cc1c[n+]([O-])c2ccccc2[n+]1[O-]` [carbadox, 2-formyl-quinoxaline-1,4-dioxide carbomethoxyhydrazone], the mutagenic effect (Salmonella Typhimurium) is given as “substantial mutagenic effect”.
For `[N-]=[N+]=[N-]` [sodium azide, reference compound], the “Number of mutating colonies/plate” value ([3]; TA 1538, 10 mcg) was 2258 mutating colonies/plate, the “Number of mutating colonies/plate” value ([4]; TA 1535, 10 mcg) was 1006 mutating colonies/plate and the “Number of mutating colonies/plate” value ([6]; TA 98, 10 mcg) was 1803 mutating colonies/plate.
